# Data from patent US11051515B2, “3-acyl-benzamides and their use as herbicides” (Bayer Aktiengesellschaft, priority 2017, dated 2021).
# Assays:
# ALOMY = experiment: Pre-emergence action against ALOMY; type: in vivo, Alopecurus myosuroides; details: Alopecurus myosuroides, 504 h; dosage 320 g/ha; pre-emergence; scored visually after 3 weeks vs untreated controls; 100% = plants have died, 0% = like control plants; read-out: Pre-emergence action against ALOMY (herbicidal activity in percent)
# In short: (§1)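 Seeds sown in sandy loam in wood-fiber pots and covered with soil. Greenhouse growth; visual damage scored after 3 weeks versus untreated controls (100% = dead, 0% = like control).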
# AVEFA [1] = experiment: Pre-emergence action against AVEFA; type: in vivo, Avena fatua; details: Avena fatua, 504 h, dosage 320 g/ha, scored visually after 3 weeks vs untreated controls, read-out: Pre-emergence action against AVEFA (herbicidal activity)
# In short: as §1
# DIGSA [2] = experiment: Pre-emergence action against DIGSA; type: in vivo, Digitaria sanguinalis; details: dosage 320 g/ha, scored visually after 3 weeks vs untreated controls
# In short: as §1
# ECHCG [3] = experiment: Pre-emergence action against ECHCG; type: in vivo, Echinochloa crus-galli; details: Echinochloa crus-galli, 504 h; pre-emergence, dosage 320 g/ha, scored visually after 3 weeks vs untreated controls; read-out: Pre-emergence action against ECHCG (herbicidal activity)
# In short: as §1
# LOLRI = experiment: Pre-emergence action against LOLRI; type: in vivo, Lolium rigidum; details: Lolium rigidum, 504 h, dosage 320 g/ha, scored visually after 3 weeks vs untreated controls, read-out: Pre-emergence action against LOLRI (herbicidal activity)
# In short: as §1
# SETVI [4] = experiment: Pre-emergence action against SETVI; type: in vivo, Setaria viridis; details: Setaria viridis, 504 h; pre-emergence, dosage 320 g/ha, scored visually after 3 weeks vs untreated controls; read-out: SETVI (Table B8, pre-emergence herbicidal activity)
# In short: as §1
# ABUTH [5] = experiment: Pre-emergence action against ABUTH; type: in vivo, Abutilon theophrasti; details: Abutilon theophrasti, 504 h; pre-emergence, dosage 320 g/ha, scored visually after 3 weeks vs untreated controls; read-out: Pre-emergence action against ABUTH (herbicidal activity)
# In short: as §1
# AMARE [6] = experiment: Pre-emergence action against AMARE; type: in vivo, Amaranthus retroflexus; details: Amaranthus retroflexus, 504 h; pre-emergence, dosage 320 g/ha, scored visually after 3 weeks vs untreated controls; read-out: Pre-emergence action against AMARE (herbicidal activity)
# In short: as §1
# MATIN [7] = experiment: Pre-emergence action against MATIN; type: in vivo, Matricaria inodora; details: Tripleurospermum inodorum, 504 h; Dosage 320 g/ha, pre-emergence
# In short: as §1
# PHBPU [8] = experiment: Pre-emergence action against PHBPU; type: in vivo, Pharbitis purpurea; details: Ipomoea purpurea, 504 h; Dosage 320 g/ha, pre-emergence
# In short: as §1
# POLCO [9] = experiment: Pre-emergence action against POLCO; type: in vivo, Polygonum convolvulus; details: Fallopia convolvulus, 504 h; Dosage 320 g/ha, pre-emergence
# In short: as §1
# STEME [10] = experiment: Pre-emergence action against STEME; type: in vivo, Stellaria media; details: Stellaria media, 504 h; Dosage 320 g/ha, pre-emergence
# In short: as §1
# VIOTR [11] = experiment: Pre-emergence action against VIOTR; type: in vivo, Viola tricolor; details: Viola tricolor, 504 h; Dosage 320 g/ha, pre-emergence
# In short: as §1
# VERPE [12] = experiment: Pre-emergence action against VERPE; type: in vivo, Veronica persica; details: Veronica persica, 504 h; Dosage 320 g/ha, pre-emergence
# In short: as §1
# HORMU = experiment: Pre-emergence action against HORMU; type: in vivo, Hordeum murinum; details: Hordeum murinum, 504 h, Dosage 320 g/ha
# In short: as §1
# AVEFA [13] = experiment: Post-emergence action against AVEFA; type: in vivo, Avena fatua; details: Avena fatua, 504 h; post-emergence, dosage 80 g/ha, visual assessment about 3 weeks after treatment vs untreated controls; read-out: Post-emergence action against AVEFA (herbicidal action in percent)
# In short: (§2)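 Post-emergence foliar spray on greenhouse plants at the one-leaf stage, using wettable-powder or emulsion-concentrate formulations in water (600 to […], plus 0.2% wetting agent). Damage scored by eye roughly 3 weeks later against untreated plants: 0% = like control, 100% = dead.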
# DIGSA [14] = experiment: Post-emergence action against DIGSA; type: in vivo, Digitaria sanguinalis; details: dosage 80 g/ha, visual assessment about 3 weeks after treatment vs untreated controls
# In short: as §2
# ECHCG [15] = experiment: Post-emergence action against ECHCG; type: in vivo, Echinochloa crus-galli; details: Echinochloa crus-galli, 504 h; post-emergence, dosage 80 g/ha, visual assessment about 3 weeks after treatment vs untreated controls; read-out: Post-emergence action against ECHCG (herbicidal action in percent)
# In short: as §2
# SETVI [16] = experiment: Post-emergence action against SETVI; type: in vivo, Setaria viridis; details: Setaria viridis, 504 h; post-emergence, dosage 80 g/ha, visual assessment about 3 weeks after treatment vs untreated controls; read-out: Post-emergence action against SETVI (herbicidal action in percent)
# In short: as §2
# ABUTH [17] = experiment: Post-emergence action against ABUTH; type: in vivo, Abutilon theophrasti; details: Abutilon theophrasti, 504 h; post-emergence, dosage 80 g/ha, visual assessment about 3 weeks after treatment vs untreated controls; read-out: Post-emergence action against ABUTH (herbicidal action in percent)
# In short: as §2
# AMARE [18] = experiment: Post-emergence action against AMARE; type: in vivo, Amaranthus retroflexus; details: Amaranthus retroflexus, 504 h; post-emergence, dosage 80 g/ha, visual assessment about 3 weeks after treatment vs untreated controls; read-out: Post-emergence action against AMARE (herbicidal action in percent)
# In short: as §2
# MATIN [19] = experiment: Post-emergence action against MATIN; type: in vivo, Matricaria inodora; details: Tripleurospermum inodorum, 504 h; post-emergence, dosage 80 g/ha, visual assessment about 3 weeks after treatment vs untreated controls; read-out: Post-emergence action against MATIN (herbicidal action in percent)
# In short: as §2
# PHBPU [20] = experiment: Post-emergence action against PHBPU; type: in vivo, Pharbitis purpurea; details: Ipomoea purpurea, 504 h; post-emergence, dosage 80 g/ha
# In short: as §2
# POLCO [21] = experiment: Post-emergence action against POLCO; type: in vivo, Polygonum convolvulus; details: Fallopia convolvulus, 504 h; post-emergence, dosage 80 g/ha
# In short: as §2
# STEME [22] = experiment: Post-emergence action against STEME; type: in vivo, Stellaria media; details: Stellaria media, 504 h; post-emergence, dosage 80 g/ha
# In short: as §2
# VIOTR [23] = experiment: Post-emergence action against VIOTR; type: in vivo, Viola tricolor; details: Viola tricolor, 504 h; post-emergence, dosage 80 g/ha
# In short: as §2
# VERPE [24] = experiment: Post-emergence action against VERPE; type: in vivo, Veronica persica; details: Veronica persica, 504 h, dosage 80 g/ha
# In short: as §2
smiles,measurement,setting,value
Cn1nnnc1NC(=O)c1ccc(C(F)(F)F)c(C(=O)C(F)F)c1Cl [1-163],pest or weed control at 320 g/ha,ALOMY,90%
same,pest or weed control at 320 g/ha,AVEFA [1],100%
same,Pre-emergence action against DIGSA (herbicidal activity),DIGSA [2],100%
same,pest or weed control at 320 g/ha,ECHCG [3],100%
same,pest or weed control at 320 g/ha,LOLRI,90%
same,pest or weed control at 320 g/ha,SETVI [4],100%
same,pest or weed control at 320 g/ha,ABUTH [5],100%
same,pest or weed control at 320 g/ha,AMARE [6],100%
same,pest or weed control at 320 g/ha,MATIN [7],100%
same,pest or weed control at 320 g/ha,PHBPU [8],80%
same,pest or weed control at 320 g/ha,POLCO [9],90%
same,pest or weed control at 320 g/ha,STEME [10],100%
same,pest or weed control at 320 g/ha,VIOTR [11],100%
same,pest or weed control at 320 g/ha,VERPE [12],100%
same,pest or weed control at 320 g/ha,HORMU,90%
same,pest or weed control at 80 g/ha,AVEFA [13],90%
same,Post-emergence action against DIGSA (herbicidal action in percent),DIGSA [14],100%
same,pest or weed control at 80 g/ha,ECHCG [15],90%
same,pest or weed control at 80 g/ha,SETVI [16],80%
same,pest or weed control at 80 g/ha,ABUTH [17],90%
same,pest or weed control at 80 g/ha,AMARE [18],90%
same,pest or weed control at 80 g/ha,MATIN [19],90%
same,pest or weed control at 80 g/ha,PHBPU [20],90%
same,pest or weed control at 80 g/ha,POLCO [21],100%
same,pest or weed control at 80 g/ha,STEME [22],100%
same,pest or weed control at 80 g/ha,VIOTR [23],90%
same,pest or weed control at 80 g/ha,VERPE [24],90%
